The values that follow come from patent US6239128A, “Indole-2,3-dione-3-oxime derivatives for therapeutic use” (Neurosearch A/S, priority 1998, dated 2001).

In the assay the target is AMPA receptor. In words: in vitro receptor affinity test: inhibition of specific binding of ^3 H-AMPA. Set-up: species or system male Wistar rats (cerebral cortex). Particulars: rat cerebral cortex membranes; ^3 H-AMPA 5 nM; 30 minutes at 2° C.; 30 mM Tris-HCl, 2.5 mM CaCl2, 100 mM KSCN, pH 7.4; read-out: IC50 (the concentration (μM) of the test substance which inhibits the specific binding of ^3 H-AMPA by 50%). The text has this:
In an in vitro activity (receptor affinity) test, the chemical compounds of the present invention have been tested for their affinity for the AMPA receptor.
L-glutamate (GLU) is the major excitatory neurotransmitter in the mammalian central nervous system. From electro-physiological- and binding studies, there appear to be at least three subtypes of GLU receptors, tentatively named N-methyl-D-aspartate (NMDA) receptors, quisqualate receptors and kainate receptors. AMPA has been known for several years to be a potent and selective agonist at the traditionally named quisqualate receptors. Activation of quisqualate receptors by AMPA is associated with Na^+ influx and K^+ efflux leading to depolarisation. ^3 H-AMPA is a selective radioligand for labelling the ionotropic quisqualate (AMPA) receptors.
Preparations are performed at 0-4° C. unless otherwise indicated. Cerebral cortex from male Wistar rats (150-200 g) is homogenised for 5-10 sec in 20 ml Tris-HCl (30 mM, pH 7.4) using an Ultra-Turrax™ homogeniser. The suspension is centrifuged at 27,000×g for 15 minutes and the pellet is washed three times with buffer (centrifuged at 27,000×g for 10 minutes). The washed pellet is homogenised in 20 ml of buffer and incubated on a water bath (of 37° C) for 30 minutes to remove endogenous glutamate and then centrifuged for 10 minutes at 27,000×g. The pellet is then homogenised in buffer and centrifuged at for 10 minutes at 27,000×g. The final pellet is resuspended in 30 ml buffer and the preparation is frozen and stored at -20° C.
The membrane preparation is thawed and centrifuged at 2° C. for 10 minutes at 27,000×g. […] Non-specific binding is determined using L-glutamate (0.6 mM, final concentration).
After incubation the 550 μl samples are added 5 ml of ice-cold buffer and poured directly onto Whatman™ GF/C glass fibre filters under suction and immediately washed with 5 ml of ice-cold buffer. […] The amount of radioactivity on the filters is determined by conventional liquid scintillation counting. […]
As for `CN1CCc2c(-c3ccc(S(=O)(=O)N(C)C)cc3)cc3c(c2C1)NC(=O)C3=NOC1CCOC1=O` (stereo not drawn) [8-methyl-5-(4-(N,N-dimethylsulfamoyl)phenyl)-6-7-8-9-tetrahydro-1H-pyrrolo[3,2-h]-isoquinoline-2,3-dione-3-O-(3-(2-oxo)tetrahydrofuryl)oxime], the IC50 is 0.15 µM.
Regarding `CN1CCc2c(-c3ccc(S(=O)(=O)N(C)C)cc3)cc3c(c2C1)NC(=O)C3=NOC(CCO)C(=O)O` (stereo not drawn) [8-methyl-5-(4-(N,N-dimethylsulfamoyl)phenyl)-6-7-8-9-tetrahydro-1H-pyrrolo[3,2-h]isoquinoline-2,3-dione-3-O-(4-hydroxybutyric acid-2-yl)oxime], the IC50 came out at 0.05 µM.
In the case of `CCOC(=O)CON=C1C(=O)Nc2c1cc(-c1ccc(S(=O)(=O)N(C)C)cc1)c1c2CN(C)CC1` [8-methyl-5-(4-(N,N-dimethylsulphamoyl)phenyl-6,7,8,9-tetrahydro-1H-pyrrolo[3,2-h]isoquinoline-2,3-dione-3-O-(ethoxycarbonylmethyl)oxime], the IC50 is 0.1 µM.
